According to patent US9145415B2, “Nitrogen-containing heterocyclic compound or salt thereof” (FUJIFILM Corporation, priority 2012, dated 2015):

Legend:
[1] = molecular target: T1, human FLT3 protein (FLT3 (WT)) (Homo sapiens, UniProt P36888); assay: FLT3 inhibition test (FLT3 enzyme inhibition, time-resolved fluorescence of substrate peptide phosphorylation); format: biochemical; conditions: GST-fused human FLT3 (564 to 993 aa), ATP 50 μM; read-out: FLT3 (WT) enzyme inhibition activity
T1 construct: human FLT3 protein (intracellular region, 564 to 993 aa); GST; purchased Carna Biosciences; host or cells: baculovirus expression system
T1 sequence (P36888 564-993): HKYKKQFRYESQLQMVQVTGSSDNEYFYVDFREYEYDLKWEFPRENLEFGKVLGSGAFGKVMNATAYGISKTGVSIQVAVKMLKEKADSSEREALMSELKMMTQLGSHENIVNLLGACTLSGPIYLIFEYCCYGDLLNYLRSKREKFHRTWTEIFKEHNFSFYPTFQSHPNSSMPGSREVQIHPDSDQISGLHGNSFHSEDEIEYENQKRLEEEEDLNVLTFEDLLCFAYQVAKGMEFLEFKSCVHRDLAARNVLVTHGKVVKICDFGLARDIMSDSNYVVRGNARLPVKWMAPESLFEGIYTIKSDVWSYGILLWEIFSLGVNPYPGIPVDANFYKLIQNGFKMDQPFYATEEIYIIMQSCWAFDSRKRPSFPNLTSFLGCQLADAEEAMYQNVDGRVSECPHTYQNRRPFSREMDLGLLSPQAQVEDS
Outline: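 Substrate peptide phosphorylation detected by time-resolved fluorescence after a 30 min kinase reaction at 25° C with 50 μM ATP (final). Beforehand, compound and FLT3 (WT, 1.2 μg) stood 15 min at 25° C in HEPES buffer pH 7.5 containing MgCl2, NaCl, BSA and DTT.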

Molm-13 cells = assay: Leukemia cell proliferation inhibition test (ATPlite), Molm-13; format: cell-based; conditions: Homo sapiens, MOLM-13, 72 h, Molm-13, 72 hours culture, ATPlite; GI50 per method; read-out: MOLM13 cell proliferation inhibition effect
Outline: (§1)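 72 h proliferation, 37° C/5% CO2; 10,000 cells/well, RPMI/10% FBS; ATPlite luminescence (RLU); 0.1% DMSO taken as 0% inhibition; GI50 via sigmoid fit, n=2.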

MV4-11 cells = assay: Leukemia cell proliferation inhibition test (ATPlite), MV4-11; format: cell-based; conditions: Homo sapiens, MV4-11, 72 h, MV4-11, 72 hours culture, ATPlite; GI50 per method; read-out: MV4-11 cell proliferation inhibition effect
Outline: as §1

| SMILES | IC50 [1] | IC50 (Molm-13 cells) | IC50 (MV4-11 cells) |
| --- | --- | --- | --- |
| CNc1nc(Nc2cccc(F)c2)ncc1C#Cc1cccc(NC(=O)CN(C)C(=O)/C=C/CN(C)C)c1 [Compound 8-23] | < 10 nM | 10 to 100 nM | 10 to 100 nM |
| C[C@@H](C(=O)NCCCC#Cc1cnc(Nc2ccc(C#N)cc2)nc1N1CCCC1)N(C)C(=O)/C=C/CN(C)C [Compound 9-1, (S,E)-N-(1-((5-(2-((4-cyanophenyl)amino)-4-(pyrrolidin-1-yl)pyrimidin-5-yl)-4-pentyn-1-yl)amino)-1-oxopropan-2-yl)-4-(dimethylamino)-N-methyl-2-butenamide] | < 10 nM | < 10 nM | < 10 nM |
| CCCN(C)c1nc(Nc2cccc(C#N)c2)ncc1C#CCCCNC(=O)[C@H](C)N(C)C(=O)/C=C/CN(C)C [Compound 9-3] | < 10 nM | 10 to 100 nM | < 10 nM |
| CCCN(C)c1nc(Nc2ccc(C(N)=O)cc2)ncc1C#CCCCNC(=O)[C@H](C)N(C)C(=O)/C=C/CN(C)C [Compound 9-6] | < 10 nM | < 10 nM | < 10 nM |
| C[C@@H](C(=O)NCCCC#Cc1cnc(Nc2ccc(C(N)=O)cc2)nc1N1CCCC1)N(C)C(=O)/C=C/CN(C)C [Compound 9-7] | < 10 nM | < 10 nM | < 10 nM |
| CCCN(C)c1nc(Nc2ccc(C(=O)NC3CC3)cc2)ncc1C#CCCCNC(=O)[C@H](C)N(C)C(=O)/C=C/CN(C)C [Compound 9-8] | < 10 nM | 10 to 100 nM | < 10 nM |
| CCCN(C)c1nc(Nc2ccc(C(=O)NC)cc2)ncc1C#CCCCNC(=O)[C@H](C)N(C)C(=O)/C=C/CN(C)C [Compound 9-9] | < 10 nM | < 10 nM | < 10 nM |
| CCCN(C)c1nc(Nc2ccnc(F)c2)ncc1C#CCCCNC(=O)[C@H](C)N(C)C(=O)/C=C/CN(C)C [Compound 9-10] | < 10 nM | < 10 nM | < 10 nM |
| C[C@@H](C(=O)NCCCC#Cc1cnc(Nc2ccnc(F)c2)nc1N1CCOCC1)N(C)C(=O)/C=C/CN(C)C [Compound 9-11] | < 10 nM | < 10 nM | < 10 nM |
| CCCNc1nc(Nc2ccnc(F)c2)ncc1C#CCCCNC(=O)[C@H](C)N(C)C(=O)/C=C/CN(C)C [Compound 9-13, (S,E)-4-(Dimethylamino)-N-(1-((5-(2-((2-fluoropyridin-4-yl)amino)-4-(propylamino)pyrimidin-5-yl)-4-pentyn-1-yl)amino)-1-oxopropan-2-yl)-N-methyl-2-butenamide] | < 10 nM | < 10 nM | < 10 nM |
| CCCN(c1nc(Nc2ccnc(F)c2)ncc1C#CCCCNC(=O)[C@H](C)N(C)C(=O)/C=C/CN(C)C)C1CC1 [Compound 9-14] | < 10 nM | < 10 nM | < 10 nM |
| C[C@@H](C(=O)NCCCC#Cc1cnc(Nc2ccnc(F)c2)nc1NCCCF)N(C)C(=O)/C=C/CN(C)C [Compound 9-17] | < 10 nM | < 10 nM | < 10 nM |
| C[C@@H](C(=O)NCCC(C)(C)C#Cc1cnc(Nc2ccnc(F)c2)nc1NC1CC1)N(C)C(=O)/C=C/CN(C)C [Compound 9-20] | < 10 nM | < 10 nM | < 10 nM |
| CCCNc1nc(Nc2ccc(C#N)c(F)c2)ncc1C#CCCCNC(=O)[C@H](C)N(C)C(=O)/C=C/CN(C)C [Compound 9-25] | < 10 nM | < 10 nM | < 10 nM |
| CCCNc1nc(Nc2ccc(C#N)cc2)ncc1C#CC(C)(C)CCNC(=O)[C@H](C)N(C)C(=O)/C=C/CN(C)C [Compound 9-26] | < 10 nM | < 10 nM | < 10 nM |
| CCCNc1nc(Nc2cccc(OC(F)F)c2)ncc1C#CCCCNC(=O)[C@H](C)N(C)C(=O)/C=C/CN(C)C [Compound 9-28] | < 10 nM | < 10 nM | < 10 nM |
| CCCNc1nc(Nc2cc(C)ns2)ncc1C#CCCCNC(=O)[C@H](C)N(C)C(=O)/C=C/CN(C)C [Compound 9-30, (S,E)-4-(Dimethylamino)-N-methyl-N-(1-((5-(2-((3-methylisothiazol-5-yl)amino)-4-(propylamino)pyrimidin-5-yl)-4-pentyn-1-yl)amino)-1-oxopropan-2-yl)-2-butenamide] | < 10 nM | < 10 nM | < 10 nM |

More lines, now with the values ahead:

| IC50 [1] | IC50 (Molm-13 cells) | IC50 (MV4-11 cells) | SMILES |
| --- | --- | --- | --- |
| < 10 nM | 10 to 100 nM | 10 to 100 nM | C[C@@H](C(=O)NCCCC#Cc1cnc(Nc2cccc(C#N)c2)nc1N1CCOCC1)N(C)C(=O)/C=C/CN(C)C [Compound 9-2] |
| < 10 nM | 10 to 100 nM | 10 to 100 nM | C=CC(=O)N(C)[C@@H](C)C(=O)NCCCC#Cc1cnc(Nc2cccc(C#N)c2)nc1N1CCOCC1 [Compound 9-4] |
| < 10 nM | 10 to 100 nM | 10 to 100 nM | CCCN(C)c1nc(Nc2cccc(F)c2)ncc1C#CCCCNC(=O)[C@H](C)N(C)C(=O)/C=C/CN(C)C [Compound 9-5] |
| < 10 nM | < 10 nM | < 10 nM | C[C@@H](C(=O)NCCCC#Cc1cnc(Nc2ccnc(F)c2)nc1N1CCCC1)N(C)C(=O)/C=C/CN(C)C [Compound 9-12, (S,E)-4-(Dimethylamino)-N-(1-((5-(2-((2-fluoropyridin-4-yl)amino)-4-(pyrrolidin-1-yl)pyrimidin-5-yl)-4-pentyn-1-yl)amino)-1-oxopropan-2-yl)-N-methyl-2-butenamide] |
| < 10 nM | < 10 nM | < 10 nM | C[C@@H](C(=O)NCCCC#Cc1cnc(Nc2ccnc(F)c2)nc1NC1CC1)N(C)C(=O)/C=C/CN(C)C [Compound 9-15, (S,E)-N-(1-((5-(4-(Cyclopropylamino)-2-((2-fluoropyridin-4-yl)amino)pyrimidin-5-yl)-4-pentyn-1-yl)amino)-1-oxopropan-2-yl)-4-(dimethylamino)-N-methyl-2-butenamide] |
| < 10 nM | < 10 nM | < 10 nM | COCCCNc1nc(Nc2ccnc(F)c2)ncc1C#CCCCNC(=O)[C@H](C)N(C)C(=O)/C=C/CN(C)C [Compound 9-16] |
| < 10 nM | < 10 nM | < 10 nM | CCCNc1nc(Nc2ccnc(F)c2)ncc1C#CCCCNC(=O)[C@H](CC)N(C)C(=O)/C=C/CN(C)C [Compound 9-18] |
| < 10 nM | < 10 nM | < 10 nM | CCCNc1nc(Nc2ccnc(F)c2)ncc1C#CC(C)(C)CCNC(=O)[C@H](C)N(C)C(=O)/C=C/CN(C)C [Compound 9-19] |
| < 10 nM | 10 to 100 nM | < 10 nM | CCCNc1nc(Nc2cncc(F)c2)ncc1C#CC(C)(C)CCNC(=O)[C@H](C)N(C)C(=O)/C=C/CN(C)C [Compound 9-21] |
| < 10 nM | 10 to 100 nM | < 10 nM | C[C@@H](C(=O)NCCCC#Cc1cnc(Nc2cncc(F)c2)nc1NC1CC1)N(C)C(=O)/C=C/CN(C)C [Compound 9-22] |
| 10 to 100 nM | 100 to 1000 nM | 10 to 100 nM | C[C@@H](C(=O)NCCCC#Cc1cnc(Nc2cccc(F)n2)nc1NC1CC1)N(C)C(=O)/C=C/CN(C)C [Compound 9-23] |
| < 10 nM | < 10 nM | < 10 nM | C[C@@H](C(=O)NCCC(C)(C)C#Cc1cnc(Nc2ccc(C#N)cc2)nc1NC1CC1)N(C)C(=O)/C=C/CN(C)C [Compound 9-27] |
| < 10 nM | < 10 nM | < 10 nM | CCCNc1nc(Nc2ccc(F)c(OC)c2)ncc1C#CCCCNC(=O)[C@H](C)N(C)C(=O)/C=C/CN(C)C [Compound 9-29] |
